{"source": "PubChem BioAssay (NCI)", "assay_in_all_cases": "NCI-60 cell line screen, 384-well format", "key": {"[1]": {"system": "NCI-H522 lung"}, "[2]": {"system": "SNB-19 CNS"}, "[3]": {"system": "HT29 colon"}, "[4]": {"system": "786-0 renal"}, "[5]": {"system": "HS 578T breast"}, "[6]": {"system": "HOP-92 NSCLC"}, "[7]": {"system": "A498 renal"}, "[8]": {"system": "MDA-MB-231 breast"}, "[9]": {"system": "MCF7 breast"}, "[10]": {"system": "SN12C renal"}, "[11]": {"system": "HCT-116 colon"}, "[12]": {"system": "SK-MEL-2 melanoma"}, "[13]": {"system": "K-562 leukemia"}, "[14]": {"system": "SR leukemia"}, "[15]": {"system": "A549 NSCLC"}, "[16]": {"system": "MOLT-4 leukemia"}, "[17]": {"system": "NCI-H460 NSCLC"}, "[18]": {"system": "ACHN renal"}, "[19]": {"system": "DU-145 prostate"}, "[20]": {"system": "KM12 colon"}, "[21]": {"system": "SF-268 CNS"}, "[22]": {"system": "M14 melanoma"}, "[23]": {"system": "HL-60(TB) leukemia"}, "[24]": {"system": "SNB-75 CNS"}, "[25]": {"system": "MDA-MB-435 melanoma"}, "[26]": {"system": "OVCAR-5 ovarian"}, "[27]": {"system": "SW-620 colon"}, "[28]": {"system": "CAKI-1 renal"}, "[29]": {"system": "OVCAR-4 ovarian"}, "[30]": {"system": "PC-3 prostate"}, "[31]": {"system": "TK-10 renal"}, "[32]": {"system": "SK-MEL-28 melanoma"}, "[33]": {"system": "BT-549 breast"}, "[34]": {"system": "UACC-62 melanoma"}, "[35]": {"system": "OVCAR-3 ovarian"}}, "note": "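The concentration for 50% growth inhibition is given as GI50. TGI marks complete inhibition of growth.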", "data": [{"smiles": "O=C(O)c1ccc2c(c1)CCCC(c1ccc(Cl)cc1Cl)=C2c1ccc(O[C@H]2CCN(CCCF)C2)cc1", "values": [{"measurement": "GI50", "setting": "[1]", "value": 10.3, "unit": "µM"}, {"measurement": "TGI", "setting": "[1]", "value": 21.9, "unit": "µM"}, {"measurement": "GI50", "setting": "[2]", "value": 13.1, "unit": "µM"}, {"measurement": "TGI", "setting": "[2]", "value": 26, "unit": "µM"}, {"measurement": "GI50", "setting": "[3]", "value": 12.2, "unit": "µM"}, {"measurement": "TGI", "setting": "[3]", "value": 24.7, "unit": "µM"}, {"measurement": "GI50", "setting": "[4]", "value": 12.7, "unit": "µM"}, {"measurement": "TGI", "setting": "[4]", "value": 25.3, "unit": "µM"}, {"measurement": "GI50", "setting": "[5]", "value": 3.36, "unit": "µM"}, {"measurement": "TGI", "setting": "[5]", "value": 18.1, "unit": "µM"}, {"measurement": "GI50", "setting": "[6]", "value": 12.3, "unit": "µM"}, {"measurement": "TGI", "setting": "[6]", "value": 24.8, "unit": "µM"}, {"measurement": "GI50", "setting": "[7]", "value": 6.94, "unit": "µM"}, {"measurement": "TGI", "setting": "[7]", "value": 19.6, "unit": "µM"}, {"measurement": "GI50", "setting": "[8]", "value": 14.8, "unit": "µM"}, {"measurement": "TGI", "setting": "[8]", "value": 28.1, "unit": "µM"}, {"measurement": "GI50", "setting": "[9]", "value": "< 0.01", "unit": "µM"}, {"measurement": "GI50", "setting": "[10]", "value": 14.4, "unit": "µM"}, {"measurement": "TGI", "setting": "[10]", "value": 27.5, "unit": "µM"}, {"measurement": "GI50", "setting": "[11]", "value": 5.87, "unit": "µM"}, {"measurement": "TGI", "setting": "[11]", "value": 18.8, "unit": "µM"}, {"measurement": "GI50", "setting": "[12]", "value": 17.4, "unit": "µM"}, {"measurement": "TGI", "setting": "[12]", "value": 31.2, "unit": "µM"}, {"measurement": "GI50", "setting": "[13]", "value": 7.96, "unit": "µM"}, {"measurement": "TGI", "setting": "[13]", "value": 20.7, "unit": "µM"}, {"measurement": "GI50", "setting": "[14]", "value": 2.92, "unit": "µM"}, {"measurement": "TGI", "setting": "[14]", "value": 10.8, "unit": "µM"}, {"measurement": "GI50", "setting": "[15]", "value": 9.67, "unit": "µM"}, {"measurement": "GI50", "setting": "[16]", "value": 3.61, "unit": "µM"}, {"measurement": "TGI", "setting": "[16]", "value": 14.2, "unit": "µM"}, {"measurement": "GI50", "setting": "[17]", "value": 10.3, "unit": "µM"}, {"measurement": "TGI", "setting": "[17]", "value": 22.2, "unit": "µM"}, {"measurement": "GI50", "setting": "[18]", "value": 11.9, "unit": "µM"}, {"measurement": "TGI", "setting": "[18]", "value": 24.3, "unit": "µM"}, {"measurement": "GI50", "setting": "[19]", "value": 13.6, "unit": "µM"}, {"measurement": "TGI", "setting": "[19]", "value": 26.6, "unit": "µM"}, {"measurement": "GI50", "setting": "[20]", "value": 11.6, "unit": "µM"}, {"measurement": "TGI", "setting": "[20]", "value": 24.2, "unit": "µM"}, {"measurement": "GI50", "setting": "[21]", "value": 14.8, "unit": "µM"}, {"measurement": "TGI", "setting": "[21]", "value": 28.2, "unit": "µM"}, {"measurement": "GI50", "setting": "[22]", "value": 11.1, "unit": "µM"}, {"measurement": "TGI", "setting": "[22]", "value": 23.1, "unit": "µM"}, {"measurement": "GI50", "setting": "[23]", "value": 4.44, "unit": "µM"}, {"measurement": "TGI", "setting": "[23]", "value": 16, "unit": "µM"}, {"measurement": "GI50", "setting": "[24]", "value": 12.9, "unit": "µM"}, {"measurement": "TGI", "setting": "[24]", "value": 25.6, "unit": "µM"}, {"measurement": "GI50", "setting": "[25]", "value": 12.2, "unit": "µM"}, {"measurement": "TGI", "setting": "[25]", "value": 24.6, "unit": "µM"}, {"measurement": "GI50", "setting": "[26]", "value": 15.2, "unit": "µM"}, {"measurement": "TGI", "setting": "[26]", "value": 28.6, "unit": "µM"}, {"measurement": "GI50", "setting": "[27]", "value": 15.7, "unit": "µM"}, {"measurement": "TGI", "setting": "[27]", "value": 29.4, "unit": "µM"}, {"measurement": "GI50", "setting": "[28]", "value": 13, "unit": "µM"}, {"measurement": "TGI", "setting": "[28]", "value": 25.7, "unit": "µM"}, {"measurement": "GI50", "setting": "[29]", "value": 11.3, "unit": "µM"}, {"measurement": "TGI", "setting": "[29]", "value": 23.5, "unit": "µM"}, {"measurement": "GI50", "setting": "[30]", "value": 10.2, "unit": "µM"}, {"measurement": "TGI", "setting": "[30]", "value": 21.9, "unit": "µM"}, {"measurement": "GI50", "setting": "[31]", "value": 12.5, "unit": "µM"}, {"measurement": "TGI", "setting": "[31]", "value": 25.2, "unit": "µM"}, {"measurement": "GI50", "setting": "[32]", "value": 11.7, "unit": "µM"}, {"measurement": "TGI", "setting": "[32]", "value": 24, "unit": "µM"}, {"measurement": "GI50", "setting": "[33]", "value": 12, "unit": "µM"}, {"measurement": "TGI", "setting": "[33]", "value": 24.3, "unit": "µM"}, {"measurement": "GI50", "setting": "[34]", "value": 13.5, "unit": "µM"}, {"measurement": "TGI", "setting": "[34]", "value": 26.3, "unit": "µM"}, {"measurement": "GI50", "setting": "[35]", "value": 10.1, "unit": "µM"}, {"measurement": "TGI", "setting": "[35]", "value": 21.8, "unit": "µM"}]}]}
